Patent publication US8124788B2, “Spirocyclic cyclohexane compounds with analgesic activity” (Gruenenthal GmbH, priority 2006, dated 2012)
Counter-ions that a name gives are not always drawn.

Assays:
human μ opiate receptor = molecular target: T1, human μ opiate receptor (Homo sapiens, UniProt P35372); experiment: Affinity for the human μ opiate receptor ([3H]-naloxone displacement, CHO-K1 membrane preparation, SPA); assay type: binding; details: for inhibition at 1 µM: 1 μM test substance, displacement of [3H]-naloxone, read-out: μ opioid receptor [1 μM], % inhibition; for Ki: Cheng-Prusoff conversion from IC50, read-out: μ opioid receptor, Ki
T1 construct: purchased PerkinElmer Life Sciences, Zaventem, Belgium RB-HOM; host or cells: CHO-K1 cells (recombinant expression)
Outline: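 CHO-K1 membranes expressing human μ receptor (15-40 μg protein/250 μl) were incubated 90 min at room temperature with 1 nmol/l [³H]-naloxone and WGA-SPA beads in 50 mmol/l Tris-HCl with 0.06% BSA; 100 μmol/l naloxone defined nonspecific binding. Percent displacement measured at 1 μmol/l; IC50 converted to Ki via Cheng-Prusoff.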

Noradrenaline reuptake = molecular target: T2, Noradrenaline reuptake (Rattus norvegicus, UniProt Q63380); experiment: Inhibition of noradrenaline (NA) reuptake in rat brain synaptosomes; assay type: biochemical; details: synaptosomes from rat hypothalamus
T2 construct: synaptosomes are freshly isolated from areas of the rat brain; from tissue; host or cells: P2 synaptosome fraction from the hypothalamus of male rat brains
Method: (§1) In order to be able to carry out these in vitro studies, synaptosomes are freshly isolated from areas of the rat brain. In each case a so-called “P2” fraction prepared in accordance with the instruction of Gray and Whittaker (E. G. Gray and V. P. Whittaker (1962) J. Anat. 76, 79-88) is prepared. For the NA uptake, these vesicular particles are isolated from the hypothalamus of male rat brains.
(§2) A detailed description of the method can be found in the literature (M. Ch. Frink, H.-H. Hennies, W. Englberger, M. Haurand and B. Wilffert (1996) Arzneim.-Forsch./Drug Res. 46 (III), 11, 1029-1036).

Serotonin reuptake = molecular target: T3, Serotonin reuptake (Rattus norvegicus, UniProt P31652); experiment: Inhibition of serotonin (5HT) reuptake in rat brain synaptosomes; assay type: biochemical
T3 construct: synaptosomes are freshly isolated from areas of the rat brain; from tissue
Method: as §1, §2

[1] = test system: phenylquinone-induced writhing in mice; experiment: Phenylquinone writhing; assay type: in vivo; details: 10 mg/kg intravenously, male NMRI mice
Method: The analgesic activity was investigated in the phenylquinone-induced writhing in mice (modified in accordance with I. C. Hendershot und J. Forsaith (1959) J. Pharmacol. Exp. Ther. 125, 237-240), Male NMRI mice weighing from 25 to 30 g were used for this. Groups of 10 animals per substance dose received 0.3 ml/mouse of a 0.02% strength aqueous solution of phenylquinone (phenylbenzoquinone, Sigma, Deisenhofen; preparation of the solution with the addition of 5% ethanol and storage in a water bath at 45° C.) administered intraperitoneally 10 minutes after intravenous administration of the test substances. The animals were placed individually in observation cages. The number of pain-induced stretching movements (so-called writhing reactions=straightening of the body with stretching of the rear extremities) was counted by means of a push-button counter 5 to 20 minutes after the administration of phenylquinone. Animals which receive only 5% strength Cremophor solution were also run as a control. All the substances were tested in the standard dosage of 10 mg/kg. The percentage inhibition (% inhibition) of the writhing reaction by a substance was calculated according to the following formula: […]

T3 sequence (P31652 whole entry): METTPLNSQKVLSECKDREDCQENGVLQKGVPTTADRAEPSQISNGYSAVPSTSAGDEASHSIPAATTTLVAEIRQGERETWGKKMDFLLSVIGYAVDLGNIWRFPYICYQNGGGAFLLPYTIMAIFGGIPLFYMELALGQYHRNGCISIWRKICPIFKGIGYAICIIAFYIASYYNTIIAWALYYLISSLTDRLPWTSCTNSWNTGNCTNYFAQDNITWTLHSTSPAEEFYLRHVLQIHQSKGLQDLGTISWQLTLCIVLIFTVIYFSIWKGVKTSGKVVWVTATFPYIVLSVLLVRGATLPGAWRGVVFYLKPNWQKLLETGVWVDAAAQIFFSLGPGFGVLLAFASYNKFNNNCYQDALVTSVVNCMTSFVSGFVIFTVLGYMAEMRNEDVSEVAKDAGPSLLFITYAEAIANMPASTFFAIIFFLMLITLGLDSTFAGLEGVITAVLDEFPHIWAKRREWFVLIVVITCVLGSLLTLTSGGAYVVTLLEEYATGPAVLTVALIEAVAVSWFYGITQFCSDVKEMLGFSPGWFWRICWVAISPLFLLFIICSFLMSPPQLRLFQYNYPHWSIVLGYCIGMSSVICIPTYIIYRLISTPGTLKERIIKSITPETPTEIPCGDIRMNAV
T2 sequence (Q63380 1-617): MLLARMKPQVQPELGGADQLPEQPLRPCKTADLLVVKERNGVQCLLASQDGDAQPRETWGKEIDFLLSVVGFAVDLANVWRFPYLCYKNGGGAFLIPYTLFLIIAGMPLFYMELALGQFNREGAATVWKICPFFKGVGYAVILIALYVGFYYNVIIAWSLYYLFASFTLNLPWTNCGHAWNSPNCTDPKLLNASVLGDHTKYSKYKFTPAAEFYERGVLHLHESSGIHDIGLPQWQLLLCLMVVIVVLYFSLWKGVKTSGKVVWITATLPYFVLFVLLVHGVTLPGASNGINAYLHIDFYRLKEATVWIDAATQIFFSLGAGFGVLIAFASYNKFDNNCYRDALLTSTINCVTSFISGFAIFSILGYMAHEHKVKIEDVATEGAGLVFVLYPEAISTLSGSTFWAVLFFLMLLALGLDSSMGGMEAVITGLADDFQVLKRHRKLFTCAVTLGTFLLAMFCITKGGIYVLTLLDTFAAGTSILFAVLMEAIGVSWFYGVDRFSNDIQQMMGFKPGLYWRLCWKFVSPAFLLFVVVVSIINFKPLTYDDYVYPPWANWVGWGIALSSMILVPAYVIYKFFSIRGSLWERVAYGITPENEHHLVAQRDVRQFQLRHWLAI
T1 sequence (P35372 whole entry): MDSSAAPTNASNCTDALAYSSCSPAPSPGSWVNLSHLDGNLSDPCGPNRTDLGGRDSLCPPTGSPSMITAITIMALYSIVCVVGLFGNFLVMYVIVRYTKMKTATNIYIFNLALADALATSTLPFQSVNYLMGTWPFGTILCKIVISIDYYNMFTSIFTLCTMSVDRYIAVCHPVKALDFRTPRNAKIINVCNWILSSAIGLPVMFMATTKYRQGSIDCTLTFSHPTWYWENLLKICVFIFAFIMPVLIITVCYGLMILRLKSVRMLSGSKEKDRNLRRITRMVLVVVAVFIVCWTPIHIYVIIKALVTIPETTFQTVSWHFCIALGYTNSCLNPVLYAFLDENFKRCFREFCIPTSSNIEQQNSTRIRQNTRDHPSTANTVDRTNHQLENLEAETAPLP

SMILES	inhibition at 1 µM (human μ opiate receptor) [%]	Ki (human μ opiate receptor) [nM]	inhibition at 10 µM (Noradrenaline reuptake) [%]	inhibition at 10 µM (Serotonin reuptake) [%]	% inhibition of the writhing reaction (dosage in mg/kg intravenously) [1]	melting point [°C]
CN(C)C(c1ccccc1)C1CCC2(CC1)OCCc1c2[nH]c2ccccc12 (stereo not shown) [Compound 27, 1,1-[3-(Dimethylamino-(phenyl)-methyl)-pentamethylene]-1,3,4,9-tetrahydropyrano[3,4-b]indole Citrate]	99	26	64	73	53 (10) %	
CN(C)C(c1cccc(F)c1)C1CCC2(CC1)NCCc1c2[nH]c2ccccc12 (stereo not shown) [Compound 18, 1,1-[3-(Dimethylamino-(3-fluorophenyl)methyl)-pentamethylene]-3,4-dihydro-1H-2,9-diazafluorene]	74	260	58	64		226 to 229
Cc1ccc2[nH]c3c(c2c1)CC(C)OC31CCC(C(c2ccccc2)N(C)C)CC1 (stereo not shown) (as salt: citrate) [Compound 42, 3,6-Dimethyl-1,1-[3-(dimethylamino-(phenyl)-methyl)-pentamethylene]-1,3,4,9-tetrahydropyrano[3,4-b]indole Citrate]						245 to 250
CN(C)C(CCc1ccccc1)C1CCC2(CC1)NCCc1c2[nH]c2ccccc12 (stereo not shown) (as salt: citrate) [Compound 20, 1,1-[3-(Dimethylamino-(phenylethyl)-methyl)-pentamethylene]-3,4-dihydro-1H-2,9-diazafluorene Citrate]						130 to 135
CN(C)C(CCc1ccccc1)C1CCC2(CC1)NCCc1c2[nH]c2ccccc12 (stereo not shown) [Compound 20, 1,1-[3-(Dimethylamino-(phenylethyl)-methyl)-pentamethylene]-3,4-dihydro-1H-2,9-diazafluorene Citrate]	97	34	91	84	45 (10) %	
CN(C)C(c1ccccc1)C1CCC2(CC1)NCCc1c2[nH]c2ccccc12 (stereo not shown) [Compound 19, 1,1-[3-(Dimethylamino-phenylmethyl)-pentamethylene]-3,4-dihydro-1H-2,9-diazafluorene]	81	180	65	91		182 to 184
